Laboratory results taken from US6737383B1, “Herbicidal oxadiazolidines” (priority 1999, dated 2004).

What was measured:
rape = assay: Test B pre/postemergence rape; type: in vivo, Brassica napus
In short: (§1)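 Herbicidal effect was estimated by eye on a ten-point control scale after plants spent twelve to sixteen days in a greenhouse following soil or foliar treatment. Foliar sprays targeted plants at one to four leaves; all doses were formulated in a non-phytotoxic solvent with surfactant.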

velvetleaf = assay: Test B pre/postemergence velvetleaf; type: in vivo, Abutilon theophrasti
In short: as §1

giant foxtail = assay: Test B pre/postemergence giant foxtail; type: in vivo, Setaria faberii
In short: as §1

sugar beet = assay: Test B pre/postemergence sugar beet; type: in vivo, Beta vulgaris
In short: as §1

soybean = assay: Test B pre/postemergence soybean; type: in vivo, Glycine max
In short: as §1

duck salad = assay: Test B flood test duck salad; type: in vivo, Heteranthera limosa
In short: (§2)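 Flood test on plants grown to the 2-leaf stage; treated plants kept in greenhouse twelve to sixteen days, then visually rated against controls on a 0 (no effect) to 10 (complete control) scale.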

pigweed = assay: Test B pre/postemergence pigweed; type: in vivo, Amaranthus retroflexus
In short: as §1

cocklebur = assay: Test B pre/postemergence cocklebur; type: in vivo, Xanthium strumarium
In short: as §1

bamyardgrass = assay: Test B flood test barnyardgrass; type: in vivo, Echinochloa crus-galli
In short: as §2

corn = assay: Test B pre/postemergence corn; type: in vivo, Zea mays
In short: as §1

rice = assay: Test B flood test rice; type: in vivo, Oryza sativa
In short: as §2

wild oat = assay: Test B pre/postemergence wild oat; type: in vivo, Avena fatua
In short: as §1

wheat = assay: Test B pre/postemergence wheat; type: in vivo, Triticum aestivum
In short: as §1

crabgrass = assay: Test B pre/postemergence crabgrass; type: in vivo, Digitaria sanguinalis
In short: as §1

morningglory = assay: Test B pre/postemergence morningglory; type: in vivo, Ipomoea hederacea
In short: as §1

purple nutsedge = assay: Test B pre/postemergence purple nutsedge; type: in vivo, Cyperus rotundus
In short: as §1

[1] = Preemergence, Rate 62 g/ha, scale of 0 to 10 where 0 is no effect and 10 is complete control
[2] = Preemergence, Rate 250 g/ha, scale of 0 to 10 where 0 is no effect and 10 is complete control
[3] = Preemergence, Rate 500 g/ha, scale of 0 to 10 where 0 is no effect and 10 is complete control
[4] = Rate 62 g/ha, Postemergence, scale 0 to 10 (0 no effect, 10 complete control)
[5] = Rate 125 g/ha, Postemergence, scale of 0 to 10 where 0 is no effect and 10 is complete control
[6] = Rate 250 g/ha, Postemergence, scale of 0 to 10 where 0 is no effect and 10 is complete control
[7] = Rate 500 g/ha, Postemergence, scale 0 to 10, 0 no effect, 10 complete control
[8] = Rate 62 g/ha, headed Pre-emergence (flood test species), scale 0 to 10 (0 no effect, 10 complete control)
[9] = Rate 125 g/ha, Pre-emergence, flood test species, scale 0 to 10 where 0 is no effect and 10 is complete control
[10] = Rate 250 g/ha, Pre-emergence, flood-test species, scale 0 to 10, 0 is no effect, 10 is complete control
[11] = Rate 500 g/ha, Pre-emergence, flood test species, scale 0 to 10 (0 no effect, 10 complete control)

CC(C)N(C(=O)n1oc(=O)n(CCCN(C)C)c1=O)c1ccc(F)cc1 [Compound 323]
1: Soybean plant response rating (soybean; [5])
3: Plant response rating, Morningglory (morningglory; [7])
0: Rape plant response rating (rape; [1]) | Rape plant response rating (0 to 10 scale) (rape; Preemergence, Rate 125 g/ha) | Rape plant response rating (rape; [2]) | Rape plant response rating (rape; [3]) | Rape plant response rating (rape; [4]) | Rape plant response rating (rape; [5]) | Plant response rating, Rape (rape; [6]) | Plant response rating, Rape (rape; [7]) | Velvetleaf plant response rating (velvetleaf; [1]) | Velvetleaf plant response rating (0 to 10 scale) (velvetleaf; Preemergence, Rate 125 g/ha) | Velvetleaf plant response rating (velvetleaf; [2]) | Velvetleaf plant response rating (velvetleaf; [3]) | Velvetleaf plant response rating (velvetleaf; [4]) | Velvetleaf plant response rating (velvetleaf; [5]) | Plant response rating, Velvetleaf (velvetleaf; [6]) | Plant response rating, Velvetleaf (velvetleaf; [7]) | Giant foxtail plant response rating (giant foxtail; [1]) | Giant foxtail plant response rating (0 to 10 scale) (giant foxtail; Preemergence, Rate 125 g/ha) | Giant foxtail plant response rating (giant foxtail; [2]) | Giant foxtail plant response rating (giant foxtail; [4]) | Giant foxtail plant response rating (giant foxtail; [5]) | Plant response rating, Giant foxtail (giant foxtail; [6]) | Plant response rating, Giant foxtail (giant foxtail; [7]) | Sugarbeets plant response rating (sugar beet; [1]) | Sugarbeets plant response rating (0 to 10 scale) (sugar beet; Preemergence, Rate 125 g/ha) | Sugarbeets plant response rating (sugar beet; [2]) | Sugarbeets plant response rating (sugar beet; [3]) | Sugarbeets plant response rating (sugar beet; [4]) | Sugarbeets plant response rating (sugar beet; [5]) | Plant response rating, Sugarbeets (sugar beet; [6]) | Plant response rating, Sugarbeets (sugar beet; [7]) | Soybean plant response rating (soybean; [1]) | Soybean plant response rating (0 to 10 scale) (soybean; Preemergence, Rate 125 g/ha) | Soybean plant response rating (soybean; [2]) | Soybean plant response rating (soybean; [3]) | Soybean plant response rating (soybean; [4]) | Ducksalad plant response rating (duck salad; [8]) | Ducksalad plant response rating (duck salad; [9]) | Ducksalad plant response rating (duck salad; [10]) | Ducksalad plant response rating (duck salad; [11]) | Redroot pigweed plant response rating (pigweed; [1]) | Redroot pigweed plant response rating (0 to 10 scale) (pigweed; Preemergence, Rate 125 g/ha) | Redroot pigweed plant response rating (pigweed; [2]) | Redroot pigweed plant response rating (pigweed; [3]) | Redroot pigweed plant response rating (pigweed; [4]) | Redroot pigweed plant response rating (pigweed; [5]) | Plant response rating, Redroot pigweed (pigweed; [6]) | Plant response rating, Redroot pigweed (pigweed; [7]) | Cocklebur plant response rating (cocklebur; [1]) | Cocklebur plant response rating (0 to 10 scale) (cocklebur; Preemergence, Rate 125 g/ha) | Cocklebur plant response rating (cocklebur; [2]) | Cocklebur plant response rating (cocklebur; [3]) | Cocklebur plant response rating (cocklebur; [4]) | Cocklebur plant response rating (cocklebur; [5]) | Plant response rating, Cocklebur (cocklebur; [6]) | Plant response rating, Cocklebur (cocklebur; [7]) | Barnyardgrass plant response rating (bamyardgrass; [8]) | Barnyardgrass plant response rating (bamyardgrass; [9]) | Barnyardgrass plant response rating (bamyardgrass; [10]) | Barnyardgrass plant response rating (bamyardgrass; [11]) | Corn plant response rating (corn; [1]) | Corn plant response rating (0 to 10 scale) (corn; Preemergence, Rate 125 g/ha) | Corn plant response rating (corn; [2]) | Corn plant response rating (corn; [3]) | Corn plant response rating (corn; [4]) | Corn plant response rating (corn; [5]) | Plant response rating, Corn (corn; [6]) | Plant response rating, Corn (corn; [7]) | Rice plant response rating (rice; [8]) | Rice plant response rating (rice; [9]) | Rice plant response rating (rice; [10]) | Rice plant response rating (rice; [11]) | Wild oats plant response rating (wild oat; [1]) | Wild oats plant response rating (0 to 10 scale) (wild oat; Preemergence, Rate 125 g/ha) | Wild oats plant response rating (wild oat; [2]) | Wild oats plant response rating (wild oat; [3]) | Wild oats plant response rating (wild oat; [4]) | Wild oats plant response rating (wild oat; [5]) | Plant response rating, Wild oats (wild oat; [6]) | Plant response rating, Wild oats (wild oat; [7]) | Wheat plant response rating (wheat; [1]) | Wheat plant response rating (0 to 10 scale) (wheat; Preemergence, Rate 125 g/ha) | Wheat plant response rating (wheat; [2]) | Wheat plant response rating (wheat; [3]) | Wheat plant response rating (wheat; [4]) | Wheat plant response rating (wheat; [5]) | Plant response rating, Wheat (wheat; [6]) | Plant response rating, Wheat (wheat; [7]) | Crabgrass plant response rating (crabgrass; [1]) | Crabgrass plant response rating (0 to 10 scale) (crabgrass; Preemergence, Rate 125 g/ha) | Crabgrass plant response rating (crabgrass; [2]) | Crabgrass plant response rating (crabgrass; [4]) | Crabgrass plant response rating (crabgrass; [5]) | Plant response rating, Crabgrass (crabgrass; [6]) | Plant response rating, Crabgrass (crabgrass; [7]) | Morningglory plant response rating (morningglory; [1]) | Morningglory plant response rating (0 to 10 scale) (morningglory; Preemergence, Rate 125 g/ha) | Morningglory plant response rating (morningglory; [2]) | Morningglory plant response rating (morningglory; [3]) | Morningglory plant response rating (morningglory; [4]) | Morningglory plant response rating (morningglory; [5]) | Nutsedge plant response rating (purple nutsedge; [1]) | Nutsedge plant response rating (0 to 10 scale) (purple nutsedge; Preemergence, Rate 125 g/ha) | Nutsedge plant response rating (purple nutsedge; [3]) | Nutsedge plant response rating (purple nutsedge; [4]) | Nutsedge plant response rating (purple nutsedge; [5]) | Plant response rating, Nutsedge (purple nutsedge; [6]) | Plant response rating, Nutsedge (purple nutsedge; [7])
2: Giant foxtail plant response rating (giant foxtail; [3]) | Plant response rating, Soybean (soybean; [6]) | Plant response rating, Soybean (soybean; [7]) | Crabgrass plant response rating (crabgrass; [3]) | Plant response rating, Morningglory (morningglory; [6])
